Results on 14 molecules are retold here after patent publication US20250282735A1, “BICYCLE COMPOUNDS AS TEAD INHIBITOR” (DONG-A ST CO., LTD., priority 2022, published 2025).

Holding throughout (format): cell-based
One assay deals with MSTO-211H cells. Description: Proliferation assay (EdU incorporation), MSTO-211H. The settings on record: Homo sapiens, 72 h, YAP-driven MSTO-211H (LATS1 mutation), 3 days with inhibitor, 1% serum. How it is done: (§1) The anti-proliferative activity of TEAD inhibitors was evaluated in cells with different properties for YAP; “YAP-driven” cells (MSTO-211H, NCI-H226) in which YAP located in the nucleus and “YAP-independent” cells (OCM1, NCI-H28) where YAP located in the cytoplasm. […] TEAD inhibitors were evaluated with cell lines with these YAP profiling and mutational status.
(§2) The next day, replace it with cell starvation medium containing 1% serum. After one day of growth in the starvation medium, the cells were incubated for 3 days with TEAD inhibitors in a concentration range of 0.01-10 μM. After 3 days, EdU (Invitrogen) at a concentration of 10 µM was added to the starvation medium and incubated for an additional 24 hours. After removing the starvation medium remaining in each well, wash the wells with PBS. Cells were fixed with 4% paraformaldehyde (Electron microscopy sciences) at room temperature for 20 minutes. After removing the fix solution remaining in each well, wash the wells with PBS and the cells were permeabilized for 40 minutes by adding 0.5% triton X-100 (Sigma Aldrich). After removing the permeabilization solution remaining in each well, the EdU labeling was performed according to the instructions of the manufacturer's instructions (Click-iT™ Cell Reaction Buffer Kit, Invitrogen). After the Click reaction for EdU labeling, nuclei were stained with […] (Thermo Scientific) for total cell count analysis. After plate preparation for detection, Image acquisition was performed using the ImageXpress Micro XLS. The acquired images were analyzed using MetaXpress software (molecular devices). Through this experimental method, it was possible to confirm the inhibitory activity of TEAD inhibitors by detection EdU incorporated into proliferating cells.
(§3) IC50 for cell proliferation inhibition activity are shown in the Table 2 below and designated within the following ranges. [+++: ≤0.1 μM, ++: >0.1 μM to ≤1 μM, +: >1 μM to ≤10μ, −: >10 μM]

Another assay deals with NCI-H226 cells. Description: Proliferation assay (EdU incorporation), NCI-H226. The settings on record: Homo sapiens, 72 h, YAP-driven NCI-H226 (NF2 mutation), 3 days with inhibitor, 1% serum. How it is done:
as §1, §2, §3

The test system of assay [1] is TEAD reporter-containing human breast cancer cell line MCF7. Description: TEAD reporter (luciferase) assay. The settings on record: TEAD reporter MCF7 cells, 24 hours treatment, 1% serum media. The essentials:
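Cells plated at 30,000/well overnight, then treated 24 h in 1% serum medium with 0.1% DMSO. CCK-8 viability read at 450 nm, then Dual-Glo luciferase luminescence; IC50 from non-linear regression of dose-response curves.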

`C=CC(=O)Nc1ccc2c(c1)c(/C=C/c1ccc(Cl)cc1)cn2C` [Compound 22, (E)-N-(3-(4-Chlorostyryl)-1-methyl-1H-indol-5-yl)acrylamide]: the half-inhibitory concentration (IC50) (in the assay with MSTO-211H cells; in the assay on NCI-H226 cells; in assay [1]) was 100 to 1000 nM each time.

Regarding `C=CC(=O)Nc1cnc2c(c1)c(/C=C/c1ccc(Cl)cc1)nn2C` [Compound 31, (E)-N-(3-(4-Chlorostyryl)-1-methyl-1H-pyrazolo[3,4-b]pyridin-5-yl)acrylamide], the half-maximal inhibitory concentration (IC50) is no more than 100 nM with MSTO-211H cells, no more than 100 nM in the assay with NCI-H226 cells and 100 to 1000 nM in assay [1].

For the molecule `C=CC(=O)Nc1ccc2c(c1)c(/C=C/c1ccc(Cl)cc1)nn2CC` [Compound 4, (E)-N-(3-(4-Chlorostyryl)-1-ethyl-1H-indazol-5-yl)acrylamide], the IC50 with MSTO-211H cells is no more than 100 nM; with NCI-H226 cells, no more than 100 nM; in assay [1], greater than 10000 nM.

For the molecule `C=CC(=O)Nc1cnc2c(c1)c(-c1ccc(Cl)cc1)cn2C` [Example 98, N-(3-(4-Chlorophenyl)-1-methyl-1H-pyrrolo[2,3-b]pyridin-5-yl)acrylamide], the half-inhibitory concentration (IC50) in the assay on MSTO-211H cells was no more than 100 nM; in the assay on NCI-H226 cells, no more than 100 nM; in assay [1], 1000 to 10000 nM.

Turning to `C=CC(=O)Nc1cnc2c(c1)c(/C=C/c1ccc(Cl)cc1)cn2C` [Compound 16, (E)-N-(3-(4-Chlorostyryl)-1-methyl-1H-pyrrolo[2,3-b]pyridin-5-yl)acrylamide], the values for the IC50 (in the assay on MSTO-211H cells; with NCI-H226 cells; in assay [1]) were no more than 100 nM, no more than 100 nM and 100 to 1000 nM, respectively.

`C=CC(=O)Nc1cnc2c(c1)c(/C=C/C1CCC(F)(F)CC1)cn2C` [Compound 15, (E)-N-(3-(2-(4,4-Difluorocyclohexyl)vinyl)-1-methyl-1H-pyrrolo[2,3-b]pyridin-5-yl)acrylamide]: the IC50 (in the assay on MSTO-211H cells; in the assay on NCI-H226 cells; in assay [1]) was no more than 100 nM throughout.

Turning to `C=CC(=O)Nc1cnc2c(c1)c(/C=C/c1ccc(Cl)cc1)cn2CC` [Compound 18, (E)-N-(3-(4-Chlorostyryl)-1-ethyl-1H-pyrrolo[2,3-b]pyridin-5-yl)acrylamide], the 50% inhibitory concentration (IC50) with MSTO-211H cells is no more than 100 nM; with NCI-H226 cells, no more than 100 nM; in assay [1], 1000 to 10000 nM.

For the molecule `C=CC(=O)Nc1cnc2c(c1)c(/C=C/C1CCC(F)(F)CC1)nn2C` [Compound 30, (E)-N-(3-(2-(4,4-Difluorocyclohexyl)vinyl)-1-methyl-1H-pyrazolo[3,4-b]pyridin-5-yl)acrylamide], the figures for the 50% inhibitory concentration (IC50) (in the assay with MSTO-211H cells; with NCI-H226 cells; in assay [1]) were 100 to 1000 nM, no more than 100 nM and no more than 100 nM, respectively.

In the case of `C=CC(=O)Nc1ccc2c(c1)c(/C=C/C1CCC(F)(F)CC1)cn2CC` [Compound 25, (E)-N-(3-(2-(4,4-Difluorocyclohexyl)vinyl)-1-ethyl-1H-indol-5-yl)acrylamide], the IC50 with MSTO-211H cells is no more than 100 nM; in the assay with NCI-H226 cells, 100 to 1000 nM; in assay [1] it was no more than 100 nM.

Regarding `C=CC(=O)Nc1cnc2c(c1)c(-c1ccc(C(C)C)cc1)cn2C` [Example 93, N-(3-(4-Isopropylphenyl)-1-methyl-1H-pyrrolo[2,3-b]pyridin-5-yl)acrylamide], the 50% inhibitory concentration (IC50) in the assay with MSTO-211H cells was no more than 100 nM; in the assay with NCI-H226 cells, no more than 100 nM; in assay [1] it was 100 to 1000 nM.

Consider `C=CC(=O)Nc1ccc2c(c1)c(/C=C/c1ccc(F)cc1)cn2C` [Compound 24, (E)-N-(3-(4-Fluorostyryl)-1-methyl-1H-indol-5-yl)acrylamide], for which the results for the IC50 (with MSTO-211H cells; in the assay on NCI-H226 cells; in assay [1]) were 100 to 1000 nM, no more than 100 nM and 100 to 1000 nM, respectively.

As to `C=CC(=O)Nc1cnc2c(c1)c(-c1ccc(Cl)c(F)c1)cn2C` [Example 87, N-(3-(4-Chloro-3-fluorophenyl)-1-methyl-1H-pyrrolo[2,3-b]pyridin-5-yl)acrylamide], the results for the half-inhibitory concentration (IC50) (in the assay on MSTO-211H cells; in the assay with NCI-H226 cells; in assay [1]) were no more than 100 nM, no more than 100 nM and 100 to 1000 nM, respectively.

For `C=CC(=O)Nc1cnc2c(c1)c(-c1ccc(F)c(C(F)(F)F)c1)cn2C` [Example 92, N-(3-(4-Fluoro-3-(trifluoromethyl)phenyl)-1-methyl-1H-pyrrolo[2,3-b]pyridin-5-yl)acrylamide], the IC50 (in the assay on MSTO-211H cells; in the assay with NCI-H226 cells; in assay [1]) was no more than 100 nM each time.

For the molecule `C=CC(=O)Nc1ccc2c(c1)c(/C=C/C1CCC(F)(F)CC1)nn2C` [Compound 1, (E)-N-(3-(2-(4,4-Difluorocyclohexyl)vinyl)-1-methyl-1H-indazol-5-yl)acrylamide], the 50% inhibitory concentration (IC50) in the assay on MSTO-211H cells is 100 to 1000 nM; in the assay with NCI-H226 cells it was no more than 100 nM; in assay [1] it was no more than 100 nM.

The term IC50 denotes the point on the concentration scale where inhibition reaches its midpoint. High values mean weaker potency, low ones greater potency.
